Converted amounts (≈) assume the structure as drawn. Like-named read-outs stand apart in the source and are kept apart here.
Legend:
[1] = test system: P. aeruginosa PSA_1992/05; assay: Broth microdilution MIC with and without bacteriophage cocktail; type: cell-based, Pseudomonas aeruginosa
Protocol: The method was developed and optimized as a proof of concept for P. aeruginosa using a single strain infected by all three phages (PSA_1992/05; NCIMB deposit 42914)). […] Different time points (4 h, 6 h, 12 h and 18 h) were used for optimization of the technique, but final readings were determined at 18 h. All experiments were conducted in duplicates. The study was optimized for the individual bacteriophages and a final assay is presented here containing data for the complete cocktail.

[2] = test system: K. pneumoniae bacterial isolates (n=36); assay: Antibiotic susceptibility testing by disk diffusion; type: cell-based, Klebsiella pneumoniae; settings: EUCAST cut-off values
Protocol: A selected group of K. pneumoniae bacterial isolates were collected between 2005 and 2019 (n=36), in at least 7 different health care facilities. Overall, these isolates were collected from hospital settings (n=25), outpatients (n=9), or from unknown origin (n=2), and from a diversity of biological products [urine (n=10), respiratory secretions (n=5), unknown (n=8), abdominal fluids (n=5) and others (n=8)]. This panel was evaluated with regards to antibiotic susceptibility testing by disk diffusion method against a selected panel of clinically important antibiotics (β-lactam antibiotics—ampicillin, ceftazidime, piperacillin with tazobactam, and meropenem; fluoroquinolones—ciprofloxacin; aminoglycosides—gentamicin; and sulphonamides—trimethoprim with sulfamethoxazole). Interpretation of results was performed according to the cut-off values recommended by the European Committee on Antimicrobial Susceptibility Testing (EUCAST, http://mic.eucast.org/Eucast2/). Isolates were considered multidrug resistant (MDR) when presenting non-susceptibility to three or more structurally unrelated classes of antibiotics (Magiorakos A P, Srinivasan A, Carey R B., Carmeli Y, Falagas M E, et al. 2011. Clin Microbiol Infect 2012; 18: 268-281).

[3] = Pseudomonas aeruginosa, No Phage, reading at 18 h, read-out: MIC
[4] = in the presence of bacteriophage cocktail TP-122A at MOI 0.1, 18 h
[5] = in the presence of bacteriophage cocktail TP-122A at MOI 1, 18 h
[6] = in the presence of bacteriophage cocktail TP-122A at MOI 10, 18 h

Row | Compound | MIC [1, 3] [µg/mL] | MIC [1, 4] [µg/mL] | MIC [1, 5] [µg/mL] | MIC [1, 6] [µg/mL] | isolates non-susceptible [2] [%] | MIC ([1]; No Phage, reading at 18 h) | MIC ([1]; Pseudomonas aeruginosa, 18 h) [µg/mL]
1 | NCC[C@H](O)C(=O)N[C@@H]1C[C@H](N)[C@@H](O[C@H]2O[C@H](CN)[C@@H](O)[C@H](O)[C@H]2O)[C@H](O)[C@H]1O[C@H]1O[C@H](CO)[C@@H](O)[C@H](N)[C@H]1O [AK, amikacin] | 0.5 (≈ 0.854 µM) | ≤0.016 | ≤0.016 | ≤0.016 | – | – | –
2 | CC(C)(O/N=C(\C(=O)N[C@@H]1C(=O)N2C(C(=O)[O-])=C(C[n+]3ccccc3)CS[C@H]12)c1csc(N)n1)C(=O)O [C/ZD, ceftazidime] | – | ≤0.016 | ≤0.016 | ≤0.016 | 86.1 | .5 µg/mL (≈ 0.915 µM) | –
3 | CC(=O)NC[C@H]1CN(c2ccc(N3CCOCC3)c(F)c2)C(=O)O1 [LZD, linezolid] | > 32 | ≤0.016 | ≤0.016 | ≤0.016 | – | – | –
4 | C[C@@H](O)[C@H]1C(=O)N2C(C(=O)O)=C(S[C@@H]3CN[C@H](C(=O)N(C)C)C3)[C@H](C)[C@H]12 [MEM, meropenem] | 0.25 (≈ 0.652 µM) | ≤0.016 | ≤0.016 | ≤0.016 | 77.8 | – | –
5 | CN[C@H](CC(C)C)C(=O)N[C@H]1C(=O)N[C@@H](CC(N)=O)C(=O)N[C@H]2C(=O)N[C@H]3C(=O)N[C@H](C(=O)N[C@H](C(=O)O)c4cc(O)cc(O)c4-c4cc3ccc4O)[C@H](O)c3ccc(c(Cl)c3)Oc3cc2cc(c3O[C@@H]2O[C@H](CO)[C@@H](O)[C@H](O)[C@H]2O[C@H]2C[C@](C)(N)[C@H](O)[C@H](C)O2)Oc2ccc(cc2Cl)[C@H]1O [VA, vancomycin] | – | ≤0.016 | ≤0.016 | ≤0.016 | – | – | > 32
6 | CC1(C)S[C@@H]2[C@H](NC(=O)[C@H](N)c3ccccc3)C(=O)N2[C@H]1C(=O)O [ampicillin] | – | – | – | – | 100 | – | –
7 | O=C(O)c1cn(C2CC2)c2cc(N3CCNCC3)c(F)cc2c1=O [ciprofloxacin] | – | – | – | – | 91.7 | – | –
8 | colistin [CS] | – | ≤0.016 | ≤0.016 | ≤0.016 | – | 0.25 µg/mL | –
9 | gentamicin | – | – | – | – | 72.2 | – | –
10 | piperacillin with tazobactam [TZP] | – | ≤0.016 | ≤0.016 | ≤0.016 | 97.2 | 1 µg/mL | –
11 | trimethoprim with sulfamethoxazole | – | – | – | – | 88.9 | – | –

Source: US20210187046A1, “COCKTAIL COMPOSITIONS COMPRISING RESPIRATORY ANTIBACTERIAL PHAGES AND METHODS OF USE THEREOF” (priority 2019, published 2021)
